Results as given in ChEMBL document CHEMBL1201862, “PubChem BioAssay data set” (2004).
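A five-concentration, 48-hour dose response in 96-well plates underlies each endpoint, interpolated linearly between surrounding concentrations. GI50: concentration for 50% inhibition of growth.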 The source made the active and inactive calls. Cut-off read from the data, not from the text of the source: active = GI50 up to about 1.1 µM and inactive = higher.

Tests used:
Assay in all cases: NCI anticancer screen, dose series, 48 h
[1] = tested on: ACHN
[2] = tested on: CAKI-1
[3] = tested on: HCT-15
[4] = tested on: K562
[5] = tested on: LOX IMVI
[6] = tested on: Malme-3M
[7] = tested on: NCI-H226
[8] = tested on: NCI-H23
[9] = tested on: OVCAR-3
[10] = tested on: OVCAR-4
[11] = tested on: OVCAR-5
[12] = tested on: RPMI-8226
[13] = tested on: RXF 393
[14] = tested on: SNB-75
[15] = tested on: SW-620
[16] = tested on: U-251
[17] = tested on: UACC-62
[18] = tested on: UO-31
[19] = tested on: SF-539

Row | Compound | GI50 [1] | GI50 [2] | GI50 [3] [µM] | GI50 [4] | GI50 [5] | GI50 [6] | GI50 [7] | GI50 [8] | GI50 [9] | GI50 [10] | GI50 [11] | GI50 [12] | GI50 [13] | GI50 [14] | GI50 [15] | GI50 [16] | GI50 [17] | GI50 [18] | GI50 [19]
1 | O=C(Cc1ccccc1)NN1C(=O)C(Cl)C1c1cc(Br)cc(Br)c1O (stereo unspecified) | 6.35 µM (inactive) | 25.8 µM (inactive) | 6.79 | 6.44 µM (inactive) | 9.95 µM (inactive) | 17.7 µM (inactive) | 14.7 µM (inactive) | 12.2 µM (inactive) | 2.71 µM (inactive) | 13 µM (inactive) | 16.1 µM (inactive) | 6.81 µM (inactive) | 17.7 µM (inactive) | 16.2 µM (inactive) | 7.14 µM (inactive) | 13 µM (inactive) | 10.3 µM (inactive) | 4.11 µM (inactive) | 
2 | Cc1ccc(C(=O)C(C2=Nc3nnc(N)n3C2=O)C2=Nc3nnc(N)n3C2=O)cc1 | > 100 µM (inactive) | > 100 µM (inactive) | > 100 | > 100 µM (inactive) | > 100 µM (inactive) | > 100 µM (inactive) | > 100 µM (inactive) | > 100 µM (inactive) | > 100 µM (inactive) | > 100 µM (inactive) | > 100 µM (inactive) | > 100 µM (inactive) | > 100 µM (inactive) | > 100 µM (inactive) | > 100 µM (inactive) |  | > 100 µM (inactive) | > 100 µM (inactive) | > 100 µM (inactive)
3 | NC(=O)N1N=C2c3ccccc3OC[C@H]2[C@@H]1c1ccccc1 | 5.68 µM (inactive) | 35.6 µM (inactive) | 5.55 | 14.4 µM (inactive) | 26.1 µM (inactive) | 21.1 µM (inactive) | 22.5 µM (inactive) | 22.6 µM (inactive) | 20.9 µM (inactive) | 33.7 µM (inactive) | 20.1 µM (inactive) | 8.89 µM (inactive) | 2.72 µM (inactive) | 16.6 µM (inactive) | 4.99 µM (inactive) | 5.14 µM (inactive) | 3.78 µM (inactive) | 42.4 µM (inactive) | 3.92 µM (inactive)
4 | O=[N+]([O-])c1ccc(-n2nnc(C3=NCCCN3)c2-c2ccc(Cl)cc2)cc1 | > 100 µM (inactive) | > 100 µM (inactive) | > 100 | 61.1 µM (inactive) | > 100 µM (inactive) | > 100 µM (inactive) | > 100 µM (inactive) | > 100 µM (inactive) | > 100 µM (inactive) | > 100 µM (inactive) | > 100 µM (inactive) | > 100 µM (inactive) | 73.1 µM (inactive) | > 100 µM (inactive) | > 100 µM (inactive) | > 100 µM (inactive) | > 100 µM (inactive) | 42.3 µM (inactive) | > 100 µM (inactive)
5 | CC(=O)Nc1ccccc1Sc1ccccc1 | > 100 µM (inactive) | 69.8 µM (inactive) | > 100 | > 100 µM (inactive) | > 100 µM (inactive) | > 100 µM (inactive) | > 100 µM (inactive) | > 100 µM (inactive) | 2.6 µM (inactive) | > 100 µM (inactive) | > 100 µM (inactive) | > 100 µM (inactive) | 74.5 µM (inactive) | 39.3 µM (inactive) | > 100 µM (inactive) | > 100 µM (inactive) | > 100 µM (inactive) | 28.6 µM (inactive) | > 100 µM (inactive)
6 | CC(C)(O)[C@@H]1CCC(C)([C@H]2[C@@H](O)CC3(C)C4CC(OC5OC(CO)C(O)C(O)C5O)C5C(C)(C)[C@@H](OC6OCC(O)C(O)C6O)CC[C@@]56C[C@@]46CC[C@]23C)O1 (stereo partly specified) | > 100 µM (inactive) |  | > 100 | > 100 µM (inactive) | > 100 µM (inactive) | > 100 µM (inactive) | > 100 µM (inactive) | > 100 µM (inactive) | > 100 µM (inactive) | > 100 µM (inactive) | > 100 µM (inactive) | > 100 µM (inactive) | > 100 µM (inactive) | > 100 µM (inactive) | > 100 µM (inactive) | > 100 µM (inactive) | > 100 µM (inactive) | > 100 µM (inactive) | > 100 µM (inactive)
